Test results published in patent publication US20010025038A1, “Method of reducing craving in mammals” (priority 1997, published 2001).

Key:
[1] = test system: adult male Sprague-Dawley (SD) rats; test: NPY-stimulated food intake in rats (Example 5); type: in vivo; settings: 3 mpk ip 30 minutes before i.c.v. NPY
Experimental: In this experiment, a baseline food intake (in grams) was measured at time intervals of 2, 4, or 24 hours following interocerebral ventricular (i.c.v.) administration of neuropeptide “Y” (NPY), a compound that stimulates an animal to consume food. A 3 μg/5 μl volume of NPY was administered to adult male Sprague-Dawley (SD) rats. On test day, three groups of rats (five rats per group) were pretreated with SCH39166 according to the following dosing schedule:
A dose of SCH39166 was injected intraperitoneally (ip). Thirty minutes later, a […] i.c.v. injection of NPY was administered. The control animals received an ip injection of the vehicle methylcellulose. Thirty minutes later, animals received NPY ([…]). A second group received 1 mpk of SCH39166 ip, and thirty minutes later received […] of NPY. A third group of animals received 3 mpk of SCH39166 ip and thirty minutes later received […] of NPY. Food intake was measured 2 hours, 4 hours, and 24 hours following NPY administration.

[2] = test system: cocaine-dependent patients; test: multi-center double blind study in cocaine-dependent patients, interim analysis (Example 6); type: in vivo
[3] = test system: healthy volunteers; test: crossover d-amphetamine study in healthy volunteers; type: in vivo; settings: 100 mg pretreatment, 15 mg d-amphetamine, vs placebo
Experimental: Similarly, in a second crossover study in healthy volunteers administered 15 mg d-amphetamine following pretreatment with 100 mg SCH 39166 or placebo, attenuation of amphetamine euphoric (FIG. 12) and dysphoric (FIG. 13) effects were also observed for SCH 39166 in comparison with the placebo.

[4] = test system: male CF-1 mice; test: cocaine induced locomotor stimulation in mice (Example 1); type: in vivo; settings: for cocaine induced increase in locomotor activity: oral dose 20 minutes before cocaine sc; for locomotor activity, drug administered alone: oral dose, 8 minute period
Experimental: Cocaine-produced increases in locomotor activity were blocked by D1/D5 antagonists, but not by D2/D3 antagonists unless relatively high doses were used. In this example, a selective D1/D5 antagonist, SCH 39166, and a selective D2/D3 antagonist, raclopride, were studied on cocaine induced locomotor stimulation in male CF-1 mice. The mice were given an oral dose of SCH 39166, raclopride or vehicle, followed 20 minutes later by a dose of cocaine or vehicle administered subcutaneously (sc).

[5] = up to 3 mg/k; cited from earlier work
[6] = test system: cocaine-dependent patients; test: multi-center double blind study in cocaine-dependent patients, interim analysis (Example 6); type: in vivo; settings: for Patients with Weight Loss ≧5 lb. / Weight Change: patients completing ≧28 days of treatment
Experimental: In a multi-center double blind study an interim analysis had been conducted on approximately 160 cocaine-dependent patients who had been given daily doses of 10 mg, 25 or 100 mg of SCH39166 or of a placebo over a test period of eight weeks.
The Body Mass Index (BMI) and the patient weight were measured at the beginning and end of the study. The BMI is determined by the weight (kg)/height^2 (meters). Patients having BMI's of 20.0-24.9 are considered to be of normal weight, while patients having BMI's over 25.0 are considered to be overweight.
Table 1B indicates the percentage of patients with an initial BMI of 22 or less and the percentage of patients with a BMI of at least 26 who lost at least one unit of BMI.

[7] = cocaine relapse model; cited from earlier work
[8] = test system: ob/ob mice; test: food intake in genetically obese ob/ob mice (Example 4); type: in vivo; settings: 3.0 mg/kg ip, p<0.02
Experimental: Twenty four male mice of a genetically obese strain, i.e. ob/ob mice, aged 16 weeks were individually housed in Nalgene metabolism cages in a reverse light cycle room for the entire duration of the study. Mice were allowed food and water ad libitum. The mice were divided into 5 groups of 4-5 mice each based on baseline food intake and body weight. Mice were dosed intraperitoneally (ip) with vehicle, 0.003, 0.03, 0.3, or 3.0 mg/kg SCH 39166 at the onset of the dark cycle and a known mass of standard rodent chow was provided. Food consumption was measured after five hours, and another ip injection of vehicle or drug was given. Food intake was measured again at 24 hours after the initial injection. These injections and measurements were continued for 72 hours. Seventy two hour cumulative food intake was decreased 17% at 3.0 mg/kg (p<0.02).

[9] = test system: rodent; test: rodent model of food craving and relapse after food restriction; type: in vivo
Description: (§1) While not wishing to be bound by any theory, D1/D5 antagonists and/or D1/D5 partial agonists may prevent dietary relapse in the treatment of obesity by blocking the rewarding effects of dopamine at the D1/D5 sites associated with cravings.

[10] = test system: people who previously had exhibited a cocaine addiction; type: in vivo, humans
Experimental: In a double-blind study, the subjects were administered placebo 10 mg of SCH39166, 25 mg of SCH 39166, or 100 mg of SCH 39166 two hours prior to an injection of […] of cocaine. Systolic and diastolic blood pressure in the individuals was measured from 2 hours prior to cocaine injection until approximately 4 hours after cocaine administration.
In the same study, the desire to take cocaine was measured as a function of time after administration of placebo or varying doses of SCH 39166. The desire to take cocaine was measured by the Visual Analog Scale test. This test procedure is described in the British Journal of Medical Psychology, Volume 47. pp 211-218 (1974). In this test the individuals are asked to subjectively rate their feelings to take cocaine on a scale of zero-100, with zero representing no desire at all and 100 representing the strongest feelings. As may be seen in FIG. 7, the euphoric “high” following cocaine administration was lower in patients who had been pre-treated with SCH 39166, particularly a dose of 100 mg.
Even if the compounds of this invention were effective in reducing craving to abused substances or food, individuals would be unlikely to take the craving-reducing drugs unless they had tolerable side effects. […] Therefore, usage of this compound should not be adversely affected by negative opinions of the individuals to whom the drug is administered nor should it cause stimulation following administration.

[11] = test system: monkeys; settings: monkeys administered SCH 39166; cited from earlier work
[12] = test system: primate; test: primate model of food craving and relapse after food restriction; type: in vivo
Description: as §1

[13] = test system: adult male rats (strain: CD); test: bar press for food on fixed-ratio schedule FR30 (Example 3); type: in vivo
Experimental: In this example, adult male rats (strain: CD) were trained to bar press for food on a fixed-ratio schedule of 30 (FR30). A rat had to press a bar 30 times in order to receive one 45 mg pellet of food. Each training session was 30 minutes long. The total response rate (total # of bar presses/30 minutes), i.e., the rate at which rats pressed the bar, was measured and then analyzed in animals that were initially given saline (control animals) and then doses of the D1/D5 antagonists SCH23390 or SCH39166. Each group of six animals received one dose of drug given subcutaneously in a volume of 1 ml/kg 30 minutes before the start of the session.

[14] = in vivo; cited from earlier work
[15] = in vivo; cited from earlier work; remark: listed apart in the source
[16] = daily doses of 10, 25 or 100 mg over eight weeks

CN1CCc2cc(Cl)c(O)cc2[C@H]2c3ccccc3CC[C@@H]21 [SCH 39166, (−)- trans-6,7,7a,8,9,13b-hexahydro-3-chloro-2-hydroxy-N-methyl-5H-benzo [d]-naphtho-[2,1-b]azepine]
food intake 2 hours after NPY administration [1]: significant decrease in food intake | % of Patients At Least One Day Since Last Cigarette ([2]; 10 mg dose): 57% | % of Patients Abstaining from Alcohol for at Least 1 day ([2]; 25 mg dose): 41% | amphetamine dysphoric effects [3]: attenuation | amphetamine euphoric effects [3]: attenuation | cocaine induced increase in locomotor activity [4]: blocked the cocaine induced increase in locomotor activity at all doses of cocaine tested | locomotor activity, drug administered alone [4]: dose dependent decrease in locomotor activity | effect on total food intake, meal size or feeding rate [5]: no effect | Patients with Weight Loss ≧1 BMI UNIT, Init. BMI ≦22 ([6]; 10 mg daily): 2/9 (22%) | Patients with Weight Loss ≧1 BMI UNIT, Init. BMI ≧26 ([6]; 10 mg daily): 2/10 (20%) | Patients with Weight Loss ≧5 lb. ([6]; 10 mg daily): 27% | Weight Change ([6]; 10 mg daily): −1.4 pounds | % of Patients Abstaining from Alcohol for at Least 1 day ([6]; 10 mg dose): 43% | % of Patients Abstaining from Alcohol for at Least 3 days ([6]; 10 mg dose): 23% | % of Patients At Least 3 Days Since Last Cigarette ([6]; 10 mg dose): 27% | Patients with Weight Loss ≧1 BMI UNIT, Init. BMI ≦22 ([6]; 25 mg daily): 2/10 (20%) | Patients with Weight Loss ≧1 BMI UNIT, Init. BMI ≧26 ([6]; 25 mg daily): 4/13 (30%) | Patients with Weight Loss ≧5 lb. ([6]; 25 mg daily): 22% | Weight Change ([6]; 25 mg daily): −0.9 pounds | % of Patients Abstaining from Alcohol for at Least 3 days ([6]; 25 mg dose): 31% | % of Patients At Least 3 Days Since Last Cigarette ([6]; 25 mg dose): 19% | % of Patients At Least One Day Since Last Cigarette ([6]; 25 mg dose): 53% | Patients with Weight Loss ≧1 BMI UNIT, Init. BMI ≦22 ([6]; 100 mg daily): 1/6 (17%) | Patients with Weight Loss ≧1 BMI UNIT, Init. BMI ≧26 ([6]; 100 mg daily): 10/14 (71%) | Patients with Weight Loss ≧5 lb. ([6]; 100 mg daily): 45% | Weight Change ([6]; 100 mg daily): −3.3 pounds | % of Patients Abstaining from Alcohol for at Least 1 day ([6]; 100 mg dose): 59% | % of Patients Abstaining from Alcohol for at Least 3 days ([6]; 100 mg dose): 48% | % of Patients At Least 3 Days Since Last Cigarette ([6]; 100 mg dose): 17% | % of Patients At Least One Day Since Last Cigarette ([6]; 100 mg dose): 38% | reducing weight in the obese population ([6]; BMI of 26 or greater, particularly at 100 mg/day): especially effective in reducing weight | reducing alcohol consumption [6, 16]: effective | reducing cigarette smoking [6, 16]: effective | reducing cocaine usage [6, 16]: did not show efficacy | reducing weight [6, 16]: effective | reducing cigarette smoking ([6]; low doses): efficacious in reducing cigarette smoking | attenuation of cocaine-seeking behavior [7]: able to attenuate the cocaine-seeking behavior | seventy two hour cumulative food intake decrease [8]: 17% | relapse associated with the effects of food and environmental cues associated with food [9]: can block the relapse | reduction in cocaine desire ([10]; Visual Analog Scale, 100 mg): greatest reduction in cocaine desire | desire to take cocaine ([10]; Visual Analog Scale, compared with placebo): significantly lower | dysphoric effects, such as anxiety, after cocaine administration ([10]; Visual Analog Scale, pre-treated patients): lower | euphoric "high" following cocaine administration ([10]; Visual Analog Scale, pre-treated patients, particularly a dose of 100 mg): lower | "bad drug effects" ([10]; in vivo): not significantly different from the placebo | systolic and diastolic blood pressure elevations caused by cocaine ([10]; in vivo, 30 mg/kg): did not adversely affect | increase in the dose of cocaine required to restore characteristic self-administration performances [11]: ≥ 3 fold | relapse associated with the effects of food and environmental cues associated with food [12]: can block the relapse | bar press rate relative to saline-treated control animals ([13]; 0.01 mpk subcutaneously 30 minutes before session, FR30): significantly reduced the bar press rate | response rate across doses ([13]; SCH 23390 0.003-0.03 mpk, SCH 39166 0.001-0.3 mpk, subcutaneously): dose-related decrease in response rate until responses were eliminated at the highest dose

O=C(CCCN1CCC(O)(c2ccc(Cl)cc2)CC1)c1ccc(F)cc1 [haloperidol]
adverse side effects [14]: significant adverse side effects, such as dysphoria, restlessness or stiffness

CCN1CCC[C@H]1CNC(=O)c1c(O)c(Cl)cc(Cl)c1OC [raclopride, reference compound]
block of the response-reinstating effects of food reinforcement [15]: sufficient to block the response-reinstating effects of food reinforcement | cocaine induced increase in locomotor activity [4]: only affected the cocaine induced increase in locomotor activity at relatively high doses | locomotor activity, drug administered alone [4]: dose dependent decrease in locomotor activity
